According to paper PMC7562955 (Nature Communications, 2020):

What was measured:
TLR7 [1] = test: Glutaraldehyde crosslinking assay of ligand-induced TLR7 dimerization; type: biochemical, Monkey (Macaca mulatta)
Protocol: The recombinant TLR7 proteins expressed in Drosophila S2 cells (Thermo Fisher Scientific) using Monkey (Macaca mulatta) TLR7 extracellular domain expression construct with N167Q, N399Q, N488Q and N799Q mutations and cleavable Z-loop and C-terminal protein A tag were prepared and were stored in a buffer containing 10 mM Tris-HCl pH 7.5 and 150 mM NaCl at concentrations of 10–15 mg ml^−1. Briefly, the purification steps included IgG affinity purification, the Z-loop and the protein A tag cleavage, and gel-filtration chromatography. Glycan-trimmed TLR7 proteins, expressed in the presence of 1.5 mg l^−1 kifunensine (Glycosyn) and treated by Endo Hf (New England Biolabs) were used for crystallization. Glycan-untrimmed proteins were used in ITC analysis, crosslinking assay, negative-staining EM and cryo-EM (200 kV microscopes) analyses. Glycan-trimmed TLR7 proteins with partially-uncleaved protein A tag were used for cryo-EM analysis using Tatan Krios (Supplementary Fig. 11).
For glutaraldehyde crosslinking assay (Fig. 2b), proteins were buffer exchanged into a buffer containing 10 mM HEPES-NaOH, pH 8.0, 150 mM NaCl and were concentrated to ~13 mg/ml using Amicon Ultra devices (Merck). Protein concentrations were adjusted to 25 µM using buffers containing 10 mM HEPES-NaOH, pH 7.0, 150 mM NaCl (for neutral condition) or 50 mM citrate-NaOH pH 5.0, 150 mM NaCl (for acidic condition). Cpd-3, Cpd-6 or Cpd-7 were added to final concentrations of 100 or 1000 µM. The reactions were started by adding glutaraldehyde (Wako) to a final concentration of 5 mM (for neutral condition) or 20 mM (for acidic condition), incubated at ambient temperature for 25 min and quenched by adding Tris-HCl pH 7.5 to a final concentration of 100 mM. Crosslinked samples were analyzed by non-reducing SDS-PAGE. Quantitative analysis of the SDS-PAGE gel image was performed with Image-J.

TLR7 [2] = target: T1, TLR7 (Homo sapiens, UniProt Q9NYK1); test: Human TLR7 reporter gene agonistic activity assay; type: cell-based; set-up: host or cells: HEK293 (TLR7/NF-κB/SEAPorter)
T1 sequence (Q9NYK1 27-1049): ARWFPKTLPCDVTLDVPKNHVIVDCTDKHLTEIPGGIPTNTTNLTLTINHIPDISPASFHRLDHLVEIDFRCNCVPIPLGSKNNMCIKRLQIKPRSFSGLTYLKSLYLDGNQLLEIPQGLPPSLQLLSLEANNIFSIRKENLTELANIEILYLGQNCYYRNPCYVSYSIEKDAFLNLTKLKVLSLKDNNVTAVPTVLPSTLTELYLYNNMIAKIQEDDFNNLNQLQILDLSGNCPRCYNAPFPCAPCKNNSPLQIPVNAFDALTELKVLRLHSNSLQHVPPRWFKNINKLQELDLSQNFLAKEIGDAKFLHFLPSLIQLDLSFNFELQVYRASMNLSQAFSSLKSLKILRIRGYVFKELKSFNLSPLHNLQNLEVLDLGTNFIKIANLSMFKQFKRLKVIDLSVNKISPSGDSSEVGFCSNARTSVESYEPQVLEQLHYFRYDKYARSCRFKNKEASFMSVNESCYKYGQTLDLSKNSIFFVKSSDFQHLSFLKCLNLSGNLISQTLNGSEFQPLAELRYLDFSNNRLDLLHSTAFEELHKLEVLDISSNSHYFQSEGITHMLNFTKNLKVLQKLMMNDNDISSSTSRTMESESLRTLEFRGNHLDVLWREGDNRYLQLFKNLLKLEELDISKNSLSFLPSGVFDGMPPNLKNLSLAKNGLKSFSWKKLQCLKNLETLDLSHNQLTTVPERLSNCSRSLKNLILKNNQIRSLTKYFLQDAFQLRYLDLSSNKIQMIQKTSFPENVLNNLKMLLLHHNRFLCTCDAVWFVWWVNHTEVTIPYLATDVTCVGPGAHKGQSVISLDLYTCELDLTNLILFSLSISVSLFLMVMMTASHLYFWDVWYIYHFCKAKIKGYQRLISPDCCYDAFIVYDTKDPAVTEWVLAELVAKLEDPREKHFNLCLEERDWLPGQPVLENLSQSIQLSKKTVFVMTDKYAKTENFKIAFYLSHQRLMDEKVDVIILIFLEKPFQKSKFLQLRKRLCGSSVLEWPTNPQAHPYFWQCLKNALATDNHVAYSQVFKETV
Protocol: Compounds were dissolved in dimethyl sulfoxide. Before stimulation with compound, Human TLR7 reporter cell line (Novus Biological) was seeded in 96-well microtiter plate (AGC techno glass) at 5 × 10^4 cells/well in DMEM (GIBCO) with 10% fetal bovine serum (GIBCO), and 10 ug/ml Blastcidin S HCl (GIBCO) and incubated at 37 °C in 5% CO2. The plates were incubated over-night and then stimulated with various concentrations of compound and R848. The plates were then incubated an additional 20 ± 1 h at 37 °C in 5% CO2 and then the secreted embryonic alkaline phosphatase (SEAP) activity was measured as activation of human TLR7. The SEAP activity was evaluated as follows: pNPP (Invitrogen, USA) was added to the incubated sample (50 μl/well); after 15 min, 4 M sodium hydroxide solution (nacalai tesque, Japan) was added thereto (50 μl/well) to quench the reaction; and the absorbance of each sample was measured at 405 nm with microplate reader SpectraMax M4 (Molecular Devices, USA).

[3] = pH 5.0, ligand + (100 or 1000 µM used)
[4] = pH 5.0, ligand ++ (100 or 1000 µM used)
[5] = pH 7.0, ligand + (100 or 1000 µM used)
[6] = pH 7.0, ligand ++ (100 or 1000 µM used)

Compound | ligand-induced TLR7 dimerization (TLR7 [1]; neutral or acidic pH) | Band intensity Dimer (TLR7 [1]; [3]) | Band intensity Monomer (TLR7 [1]; [3]) | Band intensity Dimer (TLR7 [1]; [4]) | Band intensity Monomer (TLR7 [1]; [4]) | Band intensity Dimer (TLR7 [1]; [5]) | Band intensity Monomer (TLR7 [1]; [5]) | Band intensity Dimer (TLR7 [1]; [6]) | Band intensity Monomer (TLR7 [1]; [6]) | activation of human TLR7, reporter signal (TLR7 [2]; compound 0.001 nM (as headed)) | activation of human TLR7, reporter signal (TLR7 [2]; compound 0.003 nM (as headed)) | activation of human TLR7, reporter signal (TLR7 [2]; compound 0.01 nM (as headed)) | activation of human TLR7, reporter signal (TLR7 [2]; compound 0.03 nM (as headed)) | activation of human TLR7, reporter signal (TLR7 [2]; compound 0.1 nM (as headed)) | activation of human TLR7, reporter signal (TLR7 [2]; compound 0.3 nM (as headed)) | activation of human TLR7, reporter signal (TLR7 [2]; compound 1 nM (as headed)) | activation of human TLR7, reporter signal (TLR7 [2]; compound 3 nM (as headed)) | activation of human TLR7, reporter signal (TLR7 [2]; compound 10 nM (as headed)) | activation of human TLR7, reporter signal (TLR7 [2]; compound 30 nM (as headed)) | activation of human TLR7, reporter signal (TLR7 [2]; compound 100 nM (as headed))
COCCOc1nc(N)c2[nH]c(=O)n(Cc3cccnc3)c2n1 [Cpd-3] | induced almost complete dimerization under both neutral and acidic conditions | 16031.2 | 5165.8 | 16425.6 | 4634.68 | 17958.5 | 7371.24 | 17537.6 | 7105.24 |  |  |  |  |  |  |  |  |  |  | 
CCOCc1nc2c(N)nc3ccccc3c2n1CC(C)(C)O [R848, reference compound] |  |  |  |  |  |  |  |  |  | -0.0355 | -0.0898 | -0.0215 | 0.2447 | 1.76 | 3.124 | 3.25 | 3.172 | 3.25 | 3.234 | 3.25
